# Columns and labels:
# [1] = Inhibition of VLA-4 binding to radiolabeled vascular cell adhesion molecule-1 (VCAM-1) Ig fusion protein in human Jurkat cells; format: cell-based
# Integrin alpha-4/beta-7 = target: T1, Integrin alpha-4/beta-7 (Homo sapiens, UniProt P13612+P26010); assay: Inhibition of alpha4-beta7 integrin binding to radiolabeled vascular cell adhesion molecule-1 (VCAM-1) Ig fusion protein in human Jurkat cells; format: cell-based
# T1 sequence (P13612 whole entry): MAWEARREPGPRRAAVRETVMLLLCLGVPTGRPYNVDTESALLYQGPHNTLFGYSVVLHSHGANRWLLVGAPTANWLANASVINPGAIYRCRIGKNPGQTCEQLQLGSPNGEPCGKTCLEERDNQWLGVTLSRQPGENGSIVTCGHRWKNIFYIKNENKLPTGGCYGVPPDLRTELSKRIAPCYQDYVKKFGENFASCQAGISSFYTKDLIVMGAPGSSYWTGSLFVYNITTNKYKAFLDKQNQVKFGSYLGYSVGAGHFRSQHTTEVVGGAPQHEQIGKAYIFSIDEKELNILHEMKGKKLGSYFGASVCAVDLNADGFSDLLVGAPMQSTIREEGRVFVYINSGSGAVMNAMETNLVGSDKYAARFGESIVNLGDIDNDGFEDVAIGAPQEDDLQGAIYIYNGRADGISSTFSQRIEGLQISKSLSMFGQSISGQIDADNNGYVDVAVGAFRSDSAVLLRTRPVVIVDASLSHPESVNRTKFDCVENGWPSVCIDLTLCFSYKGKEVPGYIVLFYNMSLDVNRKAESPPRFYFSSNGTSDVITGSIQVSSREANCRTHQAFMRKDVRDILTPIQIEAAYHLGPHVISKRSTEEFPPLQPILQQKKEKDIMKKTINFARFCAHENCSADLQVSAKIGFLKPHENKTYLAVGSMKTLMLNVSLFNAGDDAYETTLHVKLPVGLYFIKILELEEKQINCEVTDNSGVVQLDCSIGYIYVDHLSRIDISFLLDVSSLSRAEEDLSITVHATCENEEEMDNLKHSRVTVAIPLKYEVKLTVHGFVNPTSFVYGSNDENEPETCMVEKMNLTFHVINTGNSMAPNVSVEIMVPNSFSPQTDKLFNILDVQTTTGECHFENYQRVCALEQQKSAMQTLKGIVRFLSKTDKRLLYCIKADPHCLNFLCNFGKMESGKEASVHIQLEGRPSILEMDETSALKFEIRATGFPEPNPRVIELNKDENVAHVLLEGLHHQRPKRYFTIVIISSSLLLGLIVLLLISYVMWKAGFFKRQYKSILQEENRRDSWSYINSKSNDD
# T1 sequence (P26010 whole entry): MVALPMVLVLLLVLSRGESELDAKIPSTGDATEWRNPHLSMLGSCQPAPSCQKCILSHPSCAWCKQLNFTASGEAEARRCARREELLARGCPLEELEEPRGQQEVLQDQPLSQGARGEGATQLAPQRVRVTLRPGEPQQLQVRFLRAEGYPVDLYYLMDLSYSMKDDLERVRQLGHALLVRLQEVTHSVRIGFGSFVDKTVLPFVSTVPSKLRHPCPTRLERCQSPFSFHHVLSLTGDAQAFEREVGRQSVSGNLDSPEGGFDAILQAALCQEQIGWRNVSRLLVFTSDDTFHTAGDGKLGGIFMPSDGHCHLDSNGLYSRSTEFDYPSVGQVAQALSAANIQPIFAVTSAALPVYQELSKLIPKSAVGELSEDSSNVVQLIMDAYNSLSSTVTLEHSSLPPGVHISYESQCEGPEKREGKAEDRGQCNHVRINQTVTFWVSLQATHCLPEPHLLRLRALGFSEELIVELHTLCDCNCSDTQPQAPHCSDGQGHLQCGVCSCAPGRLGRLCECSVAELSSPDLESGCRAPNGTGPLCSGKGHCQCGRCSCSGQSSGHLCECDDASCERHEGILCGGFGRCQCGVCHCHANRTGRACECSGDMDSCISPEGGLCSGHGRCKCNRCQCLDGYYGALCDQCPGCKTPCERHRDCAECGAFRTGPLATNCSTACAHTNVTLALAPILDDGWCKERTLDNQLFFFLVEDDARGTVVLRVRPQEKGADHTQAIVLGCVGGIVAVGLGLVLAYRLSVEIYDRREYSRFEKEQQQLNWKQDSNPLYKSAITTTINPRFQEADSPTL
# [2] = Plasma clearance rate in Sprague-Dawley rats; format: ADME, organism-based; conditions: rat, read-out: Clp
# [3] = Plasma half-life was determined in Sprague-Dawley rats after 0-8 h administration of the compound; format: ADME, organism-based; conditions: rat
# [4] = Bioavailability in rat (Sprague-Dawley) (dose 1 mg/kg i.v. and 2 mg/kg p.o.); format: ADME, organism-based; conditions: in vivo, po
Structure (SMILES),IC50 [1] [nM],IC50 (Integrin alpha-4/beta-7) [nM],clearance [2] [mL/min/kg],half-life [3] [min],bioavailability [4] [%]
COc1ccccc1-c1ccc(C[C@H](NC(=O)C2(c3cncc4ccccc34)CCCC2)C(=O)O)cc1,9.8,120,–,–,–
COc1ccccc1-c1ccc(C[C@H](NC(C)=O)C(=O)O)cc1,262,–,–,–,–
COc1ccccc1-c1ccc(C[C@H](NC(=O)C2(c3cccnc3)CCCC2)C(=O)O)cc1,0.5,9.9,24,66,35
COc1ccccc1-c1ccc(C[C@H](NC(=O)C2(c3ccc(O)nc3)CCCC2)C(=O)O)cc1,1.4,26,> 100,–,1
COc1ccccc1-c1ccc(C[C@H](NC(=O)C2(c3cnccc3C)CCCC2)C(=O)O)cc1,1.2,22,> 100,12,1
COc1ccccc1-c1ccc(C[C@H](NC(=O)C2(c3cccnc3)CCN(C(C)=O)CC2)C(=O)O)cc1,0.7,30,–,–,–
COc1ccccc1-c1ccc(C[C@H](NC(=O)C2(c3ccccc3)CCCC2)C(=O)O)cc1,3.2,110,21.5,60,55
COc1ccccc1-c1ccc(C[C@H](NC(=O)C2(c3ccccc3)CCCCC2)C(=O)O)cc1,6.5,–,–,–,–
COc1ccccc1-c1ccc(C[C@H](NC(=O)Cc2ccncc2)C(=O)O)cc1,12.2,–,–,–,–
COc1ccccc1-c1ccc(C[C@H](NC(=O)Cc2cccc(C)c2)C(=O)O)cc1,30.9,–,–,–,–
COc1ccccc1-c1ccc(C[C@H](NC(=O)Cc2cccc([N+](=O)[O-])c2)C(=O)O)cc1,64.9,–,–,–,–
COc1ccccc1-c1ccc(C[C@H](NC(=O)Cc2ccccc2Cl)C(=O)O)cc1,36.8,–,–,–,–
COc1ccccc1-c1ccc(C[C@H](NC(=O)C2(c3ccc[n+]([O-])c3)CCCC2)C(=O)O)cc1,3.2,180,–,–,–
COc1ccccc1-c1ccc(C[C@H](NC(=O)C2(c3cccnc3)CCNCC2)C(=O)O)cc1,5.1,83,–,–,–
COc1ccccc1-c1ccc(C[C@H](NC(=O)Cc2ccccn2)C(=O)O)cc1,15.8,–,–,–,–
COc1ccccc1-c1ccc(C[C@H](NC(=O)C2(c3ccccc3)CC2)C(=O)O)cc1,90.7,–,–,–,–
COc1ccccc1-c1ccc(C[C@H](NC(=O)C2(c3cnc4ccccc4c3)CCCC2)C(=O)O)cc1,3.9,98,–,–,–
COc1ccccc1-c1ccc(C[C@H](NC(=O)Cc2cccc3ccccc23)C(=O)O)cc1,145,–,–,–,–
COc1ccccc1-c1ccc(C[C@H](NC(=O)C2(c3cccnc3)CCN(C)CC2)C(=O)O)cc1,1,51,–,–,–
COc1ccccc1-c1ccc(C[C@H](NC(=O)C2(c3ccc(=O)n(C)c3)CCCC2)C(=O)O)cc1,2.1,18,–,–,–
COc1ccccc1-c1ccc(C[C@H](NC(=O)Cc2ccc(-c3ccccc3)cc2)C(=O)O)cc1,607,–,–,–,–
COc1ccccc1-c1ccc(C[C@H](NC(=O)C2(c3ccc(C)nc3)CCCC2)C(=O)O)cc1,1.3,36.3,> 100,18,12
COc1ccccc1-c1ccc(C[C@H](NC(=O)Cc2c(Cl)cccc2Cl)C(=O)O)cc1,8,–,–,–,–

# Reference: ChEMBL document CHEMBL1135845, “N-(arylacetyl)-biphenylalanines as potent VLA-4 antagonists” (Bioorg Med Chem Lett, 2002)
